According to patent publication US20230157952A1, “METHOD FOR IMPROVING THE STABILITY OF A PHARMACEUTICAL COMPOSITION COMPRISING A HIGH PENETRATION DRUG, AND THE PHARMACEUTICAL COMPOSITION OBTAINED THEREFROM” (Techfields Inc., priority 2020, published 2023):
Blank lines part the entries; values can stand above or below the molecule they belong to.

Experiment: Effect of temperature (and pH) on the stability of the solution (purity)
Assay type: physicochemical

Compound: CCN(CC)CCOC(=O)C(C)c1ccc(-c2ccccc2)c(F)c1.Cl (racemic)
Purity(%) at day 21 (5° C.) (7% solution in water, pH 1.0, day 21, 5° C.): 94.0 ± 0.3%
Purity(%) at day 21 (25° C.) (7% solution in water, pH 1.0, day 21, 25° C.): 72.0 ± 0.3%
Purity(%) at day 21 (40° C.) (7% solution in water, pH 1.0, day 21, 40° C.): 18.5 ± 0.3%
Purity (%) at day 21 (60° C.) (7% solution in water, pH 1.0, day 21, 60° C.): 0%
Purity(%) at day 21 (25° C.) (7% solution in water, pH 2.0, day 21, 25° C.): 86.1 ± 0.3%
Purity(%) at day 21 (40° C.) (7% solution in water, pH 2.0, day 21, 40° C.): 30.1 ± 0.4%
Purity (%) at day 21 (60° C.) (7% solution in water, pH 2.0, day 21, 60° C.): 0%
Purity(%) at day 21 (25° C.) (7% solution in water, pH 3.0, day 21, 25° C.): 96.0 ± 0.2%
Purity(%) at day 21 (40° C.) (7% solution in water, pH 3.0, day 21, 40° C.): 56.5 ± 0.3%
Purity (%) at day 21 (60° C.) (7% solution in water, pH 3.0, day 21, 60° C.): 8.7 ± 0.3%
Purity(%) at day 21 (25° C.) (7% solution in water, pH 3.7, day 21, 25° C.): 97.5 ± 0.1%
Purity(%) at day 21 (40° C.) (7% solution in water, pH 3.7, day 21, 40° C.): 64.5 ± 0.3%
Purity (%) at day 21 (60° C.) (7% solution in water, pH 3.7, day 21, 60° C.): 16.2 ± 0.3%
Purity(%) at day 21 (40° C.) (7% solution in water, pH 4.0, day 21, 40° C.): 72.3 ± 0.3%
Purity (%) at day 21 (60° C.) (7% solution in water, pH 4.0, day 21, 60° C.): 22.4 ± 0.3%
Purity(%) at day 21 (40° C.) (7% solution in water, pH 4.3, day 21, 40° C.): 72.2 ± 0.3%
Purity (%) at day 21 (60° C.) (7% solution in water, pH 4.3, day 21, 60° C.): 18.3 ± 0.2%
Purity(%) at day 21 (40° C.) (7% solution in water, pH 4.6, day 21, 40° C.): 58.1 ± 0.4%
Purity (%) at day 21 (60° C.) (7% solution in water, pH 4.6, day 21, 60° C.): 10.4 ± 0.3%
Purity(%) at day 21 (5° C.) (7% solution in water, pH 5.0, day 21, 5° C.): 97.6 ± 0.2%
Purity(%) at day 21 (25° C.) (7% solution in water, pH 5.0, day 21, 25° C.): 96.7 ± 0.2%
Purity(%) at day 21 (40° C.) (7% solution in water, pH 5.0, day 21, 40° C.): 50.1 ± 0.3%
Purity (%) at day 21 (60° C.) (7% solution in water, pH 5.0, day 21, 60° C.): 3.0 ± 0.3%
Purity(%) at day 21 (5° C.) (7% solution in water, pH 6.0, day 21, 5° C.): 95.4 ± 0.2%
Purity(%) at day 21 (25° C.) (7% solution in water, pH 6.0, day 21, 25° C.): 90.5 ± 0.3%
Purity(%) at day 21 (40° C.) (7% solution in water, pH 6.0, day 21, 40° C.): 29.7 ± 0.4%
Purity (%) at day 21 (60° C.) (7% solution in water, pH 6.0, day 21, 60° C.): 0%
Purity(%) at day 21 (5° C.) (7% solution in water, pH 7.0, day 21, 5° C.): 89.7 ± 0.3%
Purity(%) at day 21 (25° C.) (7% solution in water, pH 7.0, day 21, 25° C.): 75.1 ± 0.3%
Purity(%) at day 21 (40° C.) (7% solution in water, pH 7.0, day 21, 40° C.): 19.8 ± 0.3%
Purity (%) at day 21 (60° C.) (7% solution in water, pH 7.0, day 21, 60° C.): 0%
Purity(%) at day 21 (5° C.) (7% solution in water, pH 8.0, day 21, 5° C.): 81.9 ± 0.3%
Purity(%) at day 21 (25° C.) (7% solution in water, pH 8.0, day 21, 25° C.): 52.8 ± 0.3%
Purity(%) at day 21 (40° C.) (7% solution in water, pH 8.0, day 21, 40° C.): 0%
Purity (%) at day 21 (60° C.) (7% solution in water, pH 8.0, day 21, 60° C.): 0%

Purity (%) at day 21 (60° C.) (pH 1.02, 7% solution in water): 0%
Purity(%) at day 21 (5° C.) (pH 1.02, 7% solution in water): 93.8 ± 0.2%
Purity(%) at day 21 (25° C.) (pH 1.02, 7% solution in water): 72.2 ± 0.2%
Purity(%) at day 21 (40° C.) (pH 1.02, 7% solution in water): 18.1 ± 0.3%
Purity (%) at day 21 (60° C.) (pH 2.09, 7% solution in water): 0%
Purity(%) at day 21 (25° C.) (pH 2.09, 7% solution in water): 86.3 ± 0.2%
Purity(%) at day 21 (40° C.) (pH 2.09, 7% solution in water): 30.2 ± 0.4%
Purity (%) at day 21 (60° C.) (pH 3.00, 7% solution in water): 7.9 ± 0.2%
Purity(%) at day 21 (25° C.) (pH 3.00, 7% solution in water): 96.3 ± 0.2%
Purity(%) at day 21 (40° C.) (pH 3.00, 7% solution in water): 56.7 ± 0.2%
Purity (%) at day 21 (60° C.) (pH 3.68, 7% solution in water): 15.3 ± 0.4%
Purity(%) at day 21 (40° C.) (pH 3.68, 7% solution in water): 63.7 ± 0.2%
Purity (%) at day 21 (60° C.) (pH 4.07, 7% solution in water): 21.5 ± 0.3%
Purity(%) at day 21 (40° C.) (pH 4.07, 7% solution in water): 72.5 ± 0.3%
Purity (%) at day 21 (60° C.) (pH 4.35, 7% solution in water): 18.7 ± 0.2%
Purity(%) at day 21 (40° C.) (pH 4.35, 7% solution in water): 72.3 ± 0.2%
Purity (%) at day 21 (60° C.) (pH 4.67, 7% solution in water): 10.6 ± 0.2%
Purity(%) at day 21 (40° C.) (pH 4.67, 7% solution in water): 58.5 ± 0.2%
Purity (%) at day 21 (60° C.) (pH 4.95, 7% solution in water): 3.1 ± 0.3%
Purity(%) at day 21 (25° C.) (pH 4.95, 7% solution in water): 95.5 ± 0.3%
Purity(%) at day 21 (40° C.) (pH 4.95, 7% solution in water): 50.6 ± 0.2%
Purity (%) at day 21 (60° C.) (pH 5.98, 7% solution in water): 0%
Purity(%) at day 21 (5° C.) (pH 5.98, 7% solution in water): 96.1 ± 0.2%
Purity(%) at day 21 (25° C.) (pH 5.98, 7% solution in water): 90.7 ± 0.3%
Purity(%) at day 21 (40° C.) (pH 5.98, 7% solution in water): 30.3 ± 0.3%
Purity (%) at day 21 (60° C.) (pH 6.98, 7% solution in water): 0%
Purity(%) at day 21 (5° C.) (pH 6.98, 7% solution in water): 90.9 ± 0.2%
Purity(%) at day 21 (25° C.) (pH 6.98, 7% solution in water): 70.8 ± 0.2%
Purity(%) at day 21 (40° C.) (pH 6.98, 7% solution in water): 19.9 ± 0.3%
Purity (%) at day 21 (60° C.) (pH 8.01, 7% solution in water): 0%
Purity(%) at day 21 (5° C.) (pH 8.01, 7% solution in water): 81.9 ± 0.2%
Purity(%) at day 21 (25° C.) (pH 8.01, 7% solution in water): 58.8 ± 0.2%
Purity(%) at day 21 (40° C.) (pH 8.01, 7% solution in water): 0%
Compound: CCN(CC)CCOC(=O)[C@H](C)c1ccc2cc(OC)ccc2c1.Cl (racemic)
